Source: patent publication US5371186A, “Synthetic peptides for detoxification of bacterial endotoxins and for the prevention and treatment of septic shock” (priority 1992, dated 1994)
Bridge positions count the residues as written; N and C are the ends. Ends that are not written are not given here. Peptide text beside a SMILES is read from it. * marks the point of attachment. Biotin = O=C1N[C@H]2[C@H](CS[C@H]2CCCCC(=O)*)N1

What was measured:
[1] = target: Avidin (Gallus gallus, UniProt P02701); details: cited from earlier work
Avidin, sequence (P02701 25-152, species assumed): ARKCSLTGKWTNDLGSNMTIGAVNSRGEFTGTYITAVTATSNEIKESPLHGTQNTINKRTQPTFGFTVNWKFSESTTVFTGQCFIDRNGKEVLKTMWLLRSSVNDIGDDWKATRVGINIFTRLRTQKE

[2] = prevention of endotoxin-induced death in CD1 mice sensitized with Actinomycin D; format: in vivo, mice (Strain CD1); details: 0.1 mg/mouse i.v., 1 μg endotoxin i.p.; for Mice surviving: 20 mice per group
Protocol: Prevention of endotoxin-induced death in mice, has been achieved by intravenous injection of the peptides of the invention. For this experiment, a strain of mice highly sensitive to the lethal activity of bacterial endotoxin has been used. Mice sensitized with Actinomycin D (Strain CD1) show a high sensitivity to extremely low doses of endotoxin. A dose as low as 1 μg of endotoxin per mouse (about 40 μg/kg of body weight) is able to completely kill a population of mice within 24-48 hours.
Groups of 20 mice CD1 have been treated intravenously with the peptides of the invention, with a single dose of 0.1 mg peptide, solubilized in sterile saline, per mouse. Thirty minutes later, mice were challenged by intraperitoneal injection of 1 μg of endotoxin purified from E. Coli strain 055-B5. Surviving mice were recorded every 24 hours during a seven days-period of observation. […] Negative controls received an intravenous injection of saline.
There were 20 mice per group. Mice surviving at each of the seven 24 hours observation periods are listed. The % survival appears in parenthesis. P expresses the level of statistical significance calculated by "t-Test" for each molecule compared to the treatment with saline, considering the total survival rate in each group.

[3] = test system: trypsin in human serum; experiment: stability towards proteolysis by trypsin in human serum; format: in vitro ADME
Protocol: (§1) The effects of trypsin present in human serum on Polymyxin "B" and the peptides of invention was determined by combining 10 μl of human serum with 20 μg of the given peptide in 10 μl volume and holding the mixture at a temperature of 37° C. for different intervals of time. At various times, an aliquot of the mixture was processed by HPLC analysis in order to detect the residual amount of the investigated peptide. In Table VI the half-lives time of each peptide investigated are shown as compared to the half-life time of Polymyxin "B".

[4] = test system: trypsin; experiment: as above; format: in vitro ADME; details: human serum, 37° C., 180 mins; read-out: AMOUNT RECOVERED % after 180 mins
Protocol: as §1

Which “K of the reaction with Avidin” value [1] does the source give for `O=C(O)CCCC[C@@H]1SC[C@@H]2NC(=O)N[C@@H]21` [Biotin] here?
Its value is 10^15.

Which results are given for `CN(C)CCCN1c2ccccc2Sc2ccc(Cl)cc21` [CPZ, Chlorpromazine]?
% survival ([2]; 24 hs): 50%; Mice surviving ([2]; 24 hs): 10; % survival ([2]; 48 hs): 50%; Mice surviving ([2]; 48 hs): 10; % survival ([2]; 72 hs): 50%; Mice surviving ([2]; 72 hs): 10; % survival ([2]; 96 hs): 50%; Mice surviving ([2]; 96 hs): 10; % survival ([2]; 120 hs): 50%; Mice surviving ([2]; 120 hs): 10; % survival ([2]; 144 hs): 50%; Mice surviving ([2]; 144 hs): 10; % survival ([2]; 168 hs): 50%; Mice surviving ([2]; 168 hs): 10

For `CC(C)C[C@@H]1NC(=O)[C@H](Cc2ccccc2)NC(=O)[C@H](CCCCN)NC(=O)[C@@H](NC(=O)[C@H](CCCCN)NC(=O)[C@@H](NC(=O)[C@@H](N)CCCCN)[C@@H](C)O)CSSC[C@@H](C(=O)O)NC(=O)[C@H](CCCCN)NC(=O)[C@H](CCCCN)NC1=O` [Peptide II] (H-KTKCKFLKKC-OH; disulfide 4-10), which “Half-Life Time (t/2)” value ([3]; human serum, 37° C.) is on record?
The value was 50 min.

What about the remaining at 3 h, 1 mg/mL [4] of the same compound?
The remaining at 3 h, 1 mg/mL was 10%.

Which “Half-Life Time (t/2)” value ([3]; human serum, 37° C.) does the source give for `CC(C)C[C@@H]1NC(=O)[C@H](CCCCN)NC(=O)[C@H](CCCCN)NC(=O)[C@@H](N)CSSC[C@@H](C(=O)N[C@@H](CCCCN)C(=O)N[C@H](C(=O)N[C@@H](CCCCN)C(=O)O)[C@@H](C)O)NC(=O)[C@H](CCCCN)NC(=O)[C@H](Cc2ccccc2)NC1=O` [Peptide IV] (H-CKKLFKCKTK-OH; disulfide 1-7) here?
Its value is 18 min.

And the remaining at 3 h, 1 mg/mL [4]?
Its remaining at 3 h, 1 mg/mL is 0%.

What does the source list for `CC(C)C[C@@H]1NC(=O)[C@H](Cc2ccccc2)NC(=O)[C@H](CCCCN)NC(=O)[C@@H](N)CSSC[C@@H](C(=O)O)NC(=O)[C@H](CCCCN)NC(=O)[C@H](CCCCN)NC1=O` [Peptide I] (H-CKFLKKC-OH; disulfide 1-7)?
Half-Life Time (t/2) ([3]; human serum, 37° C.): > 180 min; remaining at 3 h, 1 mg/mL [4]: 70%

For `CC[C@H](C)[C@H](N)C(=O)N[C@@H](CCCCN)C(=O)N[C@H](C(=O)N[C@@H](CCCCN)C(=O)N[C@H]1CSSC[C@@H](C(=O)O)NC(=O)[C@H](CCCCN)NC(=O)[C@H](CCCCN)NC(=O)[C@H](CC(C)C)NC(=O)[C@H](Cc2ccccc2)NC(=O)[C@H](CCCCN)NC1=O)[C@@H](C)O` [Peptide VI] (H-IKTKCKFLKKC-OH; disulfide 5-11), which “Half-Life Time (t/2)” value ([3]; human serum, 37° C.) is on record?
Its value is 1,080 min.

And the remaining at 3 h, 1 mg/mL [4]?
Its remaining at 3 h, 1 mg/mL is 76%.

Which results are given for `CC(C)C[C@@H]1NC(=O)[C@H](CCCCN)NC(=O)[C@H](CCCCN)NC(=O)[C@@H](N)CSSC[C@@H](C(=O)N[C@@H](CCCCN)C(=O)N[C@H](C(=O)O)[C@@H](C)O)NC(=O)[C@H](CCCCN)NC(=O)[C@H](Cc2ccccc2)NC1=O` [Peptide V] (H-CKKLFKCKT-OH; disulfide 1-7)?
Half-Life Time (t/2) ([3]; human serum, 37° C.): 240 min; remaining at 3 h, 1 mg/mL [4]: 55%

Which “Half-Life Time (t/2)” value ([3]; human serum or human whole blood, not significantly different from the unlabeled value) does the source give for `CC[C@H](C)[C@H](NC(=O)CCCC[C@@H]1SC[C@@H]2NC(=O)N[C@@H]21)C(=O)N[C@@H](CCCCN)C(=O)N[C@H](C(=O)N[C@@H](CCCCN)C(=O)N[C@H]1CSSC[C@@H](C(=O)O)NC(=O)[C@H](CCCCN)NC(=O)[C@H](CCCCN)NC(=O)[C@H](CC(C)C)NC(=O)[C@H](Cc2ccccc2)NC(=O)[C@H](CCCCN)NC1=O)[C@@H](C)O` [labeled Peptide VI] (Biotin-IKTKCKFLKKC-OH; disulfide 5-11) here?
The value was roughly 1200 min.

Which “Half-Life Time (t/2)” value ([3]; human serum, 37° C.) does the source give for IKFLKFLKFLK [Peptide VIII] here?
Its value is 7 min.

And the remaining at 3 h, 1 mg/mL [4]?
The remaining at 3 h, 1 mg/mL was 0%.

With IKTKKFLKKT [Peptide VII] as the compound, how does the “Half-Life Time (t/2)” value ([3]; human serum, 37° C.) read?
The value was 50 min.

What about the remaining at 3 h, 1 mg/mL [4] of the same compound?
Its remaining at 3 h, 1 mg/mL is 28%.

With KFLKFLK [Peptide IX] as the compound, how does the “Half-Life Time (t/2)” value ([3]; human serum, 37° C.) read?
The value was 10 min.

And the remaining at 3 h, 1 mg/mL [4]?
Its remaining at 3 h, 1 mg/mL is 0%.

What does the source list for RYVRYVRYV [Peptide X]?
Half-Life Time (t/2) ([3]; human serum, 37° C.): 35 min; remaining at 3 h, 1 mg/mL [4]: 0%
